Measurements published in patent publication US10806794B2, “Protease inhibitors having enhanced features” (priority 2008, dated 2020).
In brackets after ≈: the same amount, converted by molar mass. Several values for one entry are separate records, joined by “and”; a condition that tells them apart may be missing. Identical values can stand only once.

Tests used:
[1] = test system: HIV-1RF; assay: Pre-exposure assay: CEM-SS cells treated before HIV-1RF infection, cell viability; format: cell-based; conditions: for EC50: Human immunodeficiency virus 1, CEM-SS, read-out: EC50
Protocol: (§1) The effects of pre- and post-infection PI treatment on CEM-SS toxicity were assessed. […] Cell toxicity was monitored six days after infection using XTT reagent. In the post-exposure assay, test compounds were added to cells 0, 24, 48, or 72 h after HIV-1 infection, and cell viability was measured six days post-infection.

[2] = test system: HIV-1RF; assay: Post-exposure assay: compounds added after HIV-1 infection of CEM-SS cells, cell viability; format: cell-based; conditions: Human immunodeficiency virus 1, CEM-SS, read-out: EC50
Protocol: as §1

[3] = test system: CEM-SS cells; assay: Post-exposure assay: toxicity in CEM-SS cells; conditions: human
Protocol: as §1

[4] = test system: HIV-1RF; assay: p24 levels after single high MOI HIV-1RF infection of CEM-SS cells, time of addition; format: cell-based
Protocol: The cytoprotective effect against HIV of the PEG-protease inhibitor conjugates was evaluated during a single round of high multiplicity of infection (“MOI”) HIV-1 infection in CEM-SS cells. CEM-SS cells were incubated for one hour with a single high MOI dose of HIV-1RF. Cells were washed to remove free virus, then test compounds were added to cells at 0, 2, 4, 6, 8, 16, or 24 hours after HIV-1 infection. To monitor viral replication, cell supernatants were analyzed at 30 hours post-infection for levels of the HIV capsid protein p24 (FIG. 1). […] Nevirapine inhibited viral replication at 1 μM when added to cells up to four hours post-infection, and at 10 μM when added up to eight hours post-infection.

[5] = test system: HIV-1 virions; assay: Infectivity of HIV-1 virions from treated cells on naive CEM-SS cells; format: cell-based
Protocol: In concert with p24 analysis, cell supernatants collected from cells exposed to test compounds at 8, 16, or 24 hours post-infection were used to infect naïve CEM-SS cells. Cell viability was measured six days post-infection as a measure of virus infectivity (Table 5).

[6] = test system: HIV-1RF; assay: Anti-HIV cytoprotection in CEM-SS cells infected with HIV-1RF (XTT); format: cell-based; conditions: six days, XTT; read-out: CEM-SS/HIV-1RF EC50 ± SD
Protocol: To evaluate whether conjugated protease inhibitors retain the ability to protect against HIV-1 infection, CEM-SS cells infected with the RF strain of HIV-1 were treated with test compounds for six days, and then cell viability was monitored using the tetrazolium dye XTT. […] A value for Therapeutic Index (TI) was calculated as TC50/EC50.

[7] = test system: HIV-1 HT/92/599; assay: HIV-1 reverse transcriptase activity after infection of fresh human PBMCs; format: cell-based; conditions: read-out: PBMC/HIV-1HT/92/599 EC50 ± SD; seven days, reverse transcriptase activity
Protocol: (§2) Fresh human peripheral blood mononuclear cells (PBMCs) obtained from a commercial source were purified following centrifugation using a Ficoll-Hypaque density gradient. Viable cells were induced to proliferate in the presence of PHA-P and recombinant human IL-2 for 72 hours. […] Cell supernatant containing HIV-1 viral was incubated for 90 minutes at 37° C. with a reaction mixture containing EGTA, Triton X-100, Tris (pH 7.4), DTT, MgCl2, poly rA, oligo dT, and tritiated thymidine triphosphate (TTP). Incorporation of TTP into DNA was monitored by spotting the reaction mixture onto a DEAE filter mat, followed by washes with 5% phosphate buffer, distilled water, and 70% ethanol, and subsequent drying of the mat. Radioactivity was measured using a Wallac 1450 Microbeta Trilux liquid scintillation counter using Opti-Fluor O. Test compound-associated toxicity was measured in PBMCs cultured for seven days in the absence of virus using XTT reagent. […] TI was calculated as TC50/EC50.

[8] = test system: PBMCs; assay: Toxicity in PBMCs cultured without virus (XTT); conditions: seven days, absence of virus, XTT
Protocol: as §2, with “mat.” for “mat. Radioactivity was measured using a Wallac 1450 Microbeta Trilux liquid scintillation counter using Opti-Fluor O. Test compound-associated toxicity was measured in PBMCs cultured for seven days in the absence of virus using XTT reagent.”

[9] = test system: Caco-2 cells; assay: Bi-directional permeability in Caco-2 monolayers; conditions: Caco-2 monolayers
Protocol: Absorption properties of various compounds were measured using bi-directional permeability assays in Caco-2 cells. […] The efflux ratio is calculated as the ratio of the Papp(B→A)/Papp(A→B).

[10] = Metabolic stability in human liver microsomes; conditions: human liver microsomes, 3 μM
Protocol: The human liver microsome-mediated biotransformation of PEG-PI compounds was determined by monitoring the loss of the substrate as a function of time. […] Test compounds (3 μM final concentration) were preincubated with pooled (male and female) human liver microsomes (0.5 mg/mL final protein concentration) in buffer (0.1M phosphate buffer, pH 7.4) at 37° C. Reactions were initiated by the addition of NADPH (1 mM final concentration), and allowed to continue for 0, 5, 15, 30, and 45 minutes. […] Sample supernatants are analyzed by liquid chromatography-tandem mass spectrometry.

[11] = test system: human plasma proteins; assay: Plasma protein binding by equilibrium dialysis, human plasma; format: in vitro ADME; conditions: human plasma, 5 μM, fraction unbound
Protocol: In assays to estimate binding of test compounds to plasma proteins, test compound solutions (5 μM) are prepared in buffer and species-specific plasma (final DMSO concentration 0.5%). The plasma-containing solution is added to one side of the membrane of an equilibrium dialysis system, and the plasma-free is added to the other side. Dialysis was allowed to reach equilibrium by incubation for two hours at 37° C. The concentration of compound on both sides of the membrane was measured using LC-MS/MS.

[12] = test system: human liver microsomal proteins; assay: Microsomal protein binding by equilibrium dialysis; format: in vitro ADME; conditions: human liver microsomes, 3 μM, fraction unbound
Protocol: PEGylated protease inhibitors were evaluated for their propensity to be bound by proteins in normal human plasma or in human liver microsome preparations using equilibrium dialysis analysis. For microsomal protein binding, test compound (final concentration=3 μM) was diluted into either buffer alone or buffer containing human liver microsomes. The protein-free and microsome-containing solutions were then added to either side of an equilibrium dialysis system and allowed to reach equilibrium at 37° C. The concentration of compound on both sides of the membrane at equilibrium was quantified by LC-MS/MS, and the fraction of compound that remains unbound (Fu) is calculated.

[13] = drug addition 0 h post-infection
[14] = drug addition 24 h post-infection
[15] = drug addition 48 h post-infection
[16] = drug addition 72 h post-infection

COc1cc(-c2ccc(/N=N/c3ccc4c(S(=O)(=O)O)cc(S(=O)(=O)O)c(N)c4c3O)c(OC)c2)ccc1/N=N/c1ccc2c(S(=O)(=O)O)cc(S(=O)(=O)O)c(N)c2c1O [Chicago Sky Blue]
EC50 ([1]; exposure 2 h pre-infection): > 10 µg/mL | EC50 ([1]; exposure 8 h pre-infection): > 10 µg/mL | EC50 ([1]; exposure 24 h pre-infection): > 10 µg/mL | antiviral activity after pre-treatment of cells ([1]; concentrations up to 10 μg/mL): did not demonstrate antiviral activity | EC50 [2, 13]: 1.84 µg/mL | EC50 [2, 14]: > 10 µg/mL | EC50 [2, 15]: > 10 µg/mL | EC50 [2, 16]: > 10 µg/mL | TC50 ([3]; 3 days): 5.6 µg/mL (≈ 6.19 µM) | TC50 ([3]; 4 days): 5.5 µg/mL (≈ 6.08 µM) | TC50 ([3]; 5 days): 4.9 µg/mL (≈ 5.42 µM) | TC50 ([3]; 6 days): 8.2 µg/mL (≈ 9.06 µM) | effect on p24 levels ([4]; added at any time after infection, even at 50 μg/mL): did not affect p24 levels | Percent Infectivity of HIV-1 Virions in comparison to virus-alone control ([5]; 0.5 μg/mL, added 8 h post-infection): 100.0% | Percent Infectivity of HIV-1 Virions in comparison to virus-alone control ([5]; 0.5 μg/mL, added 16 h post-infection): 177.8% | Percent Infectivity of HIV-1 Virions in comparison to virus-alone control ([5]; 0.5 μg/mL, added 24 h post-infection): 266.4% | Percent Infectivity of HIV-1 Virions in comparison to virus-alone control ([5]; 5 μg/mL, added 8 h post-infection): 100.0% | Percent Infectivity of HIV-1 Virions in comparison to virus-alone control ([5]; 5 μg/mL, added 16 h post-infection): 331.2% | Percent Infectivity of HIV-1 Virions in comparison to virus-alone control ([5]; 5 μg/mL, added 24 h post-infection): 100.0% | Percent Infectivity of HIV-1 Virions in comparison to virus-alone control ([5]; 50 μg/mL, added 8 h post-infection): 100.0% | Percent Infectivity of HIV-1 Virions in comparison to virus-alone control ([5]; 50 μg/mL, added 16 h post-infection): 562.3% | Percent Infectivity of HIV-1 Virions in comparison to virus-alone control ([5]; 50 μg/mL, added 24 h post-infection): 100.0%

CC(C)c1nc(CN(C)C(=O)N[C@H](C(=O)N[C@@H](Cc2ccccc2)C[C@H](O)[C@H](Cc2ccccc2)NC(=O)OCc2cncs2)C(C)C)cs1 [Ritonavir]
EC50 ([1]; exposure 2 h pre-infection): 0.72 µM | EC50 ([1]; exposure 8 h pre-infection): 0.75 µM | EC50 ([1]; exposure 24 h pre-infection): 0.68 µM | EC50 values after pre-treatment of cells ([1]; in words): sub-micromolar | EC50 [2, 13]: 0.04 µM | EC50 [2, 14]: 0.03 µM | EC50 [2, 15]: 0.07 µM | EC50 [2, 16]: 0.26 µM | time of addition up to which antiviral activity (reduced p24) was seen ([4]; 0.1 μM): up to six | time of addition up to which antiviral activity (reduced p24) was seen ([4]; 1 μM): up to 24 hours post-infection | Percent Infectivity of HIV-1 Virions in comparison to virus-alone control ([5]; 0.01 μM, added 8 h post-infection): 42.9% | Percent Infectivity of HIV-1 Virions in comparison to virus-alone control ([5]; 0.01 μM, added 16 h post-infection): 331.2% | Percent Infectivity of HIV-1 Virions in comparison to virus-alone control ([5]; 0.01 μM, added 24 h post-infection): 100.0% | Percent Infectivity of HIV-1 Virions in comparison to virus-alone control ([5]; 0.1 μM, added 8 h post-infection): 1.0% | Percent Infectivity of HIV-1 Virions in comparison to virus-alone control ([5]; 0.1 μM, added 16 h post-infection): 3.7% | Percent Infectivity of HIV-1 Virions in comparison to virus-alone control ([5]; 0.1 μM, added 24 h post-infection): 26.6% | Percent Infectivity of HIV-1 Virions in comparison to virus-alone control ([5]; 1 μM, added 8 h post-infection): 0.1% | Percent Infectivity of HIV-1 Virions in comparison to virus-alone control ([5]; 1 μM, added 16 h post-infection): 0.1% | Percent Infectivity of HIV-1 Virions in comparison to virus-alone control ([5]; 1 μM, added 24 h post-infection): 0.1%

COCCOCCOCCOCCOCCOCCOCCOc1ccc(C[C@H](NC(=O)O[C@H]2CO[C@H]3OCC[C@H]32)C(O)CN(CC(C)C)S(=O)(=O)c2ccc(N)cc2)cc1 (some centres unmarked) [mPEG7-O-Darunavir]
EC50 [6]: 0.047 µM and 0.076 µM | EC50 [7]: 0.25 ± 0.027 µM | PBMC TC50 ± SD [8]: >200 µM | Efflux ratio (B→A/A→B) [9]: 33 | A→B, ×10^−6 ([9]; apical to basolateral): 0.19 cm/s | CLint ± SEM [10]: 113 ± 8.87 μL/min/mg protein | t1/2 [10]: 12.2 min | Plasma Protein Binding Fu ± SD [11]: 0.314 ± 0.0116 | Microsomal Protein Binding Fu ± SD [12]: 0.84 ± 0.0131
